Columns and labels:
[1] = tested on: MCF-7 (breast cancer cell line); assay: MTT antiproliferative assay, MCF7; assay type: cell-based, human; conditions: 96 h incubation
Experimental: (§1) The target compounds were evaluated for their antiproliferative activity against different human cancer cell lines, including A549 (non-small cell lung cancer cell line), MCF-7 (breast cancer cell line), HCT116 (colon cancer cell line), PC-3 (prostate cancer cell line) and HL7702 (human liver normal cell line) by using the MTT assay with sorafenib as the control drug.
(§2) The antiproliferative activities of target compounds were determined using a standard MTT assay. Exponentially growing cells A549 (1.5 × 10^3 cells/well), MCF-7 (2.2 × 10^3 cells/well), HCT-116 (800 cells/well), PC-3 (2.0 × 10^3 cells/well) and HL7702 (5.0 × 10^3 cells/well) were seeded into 96-well plates and incubated for 24 h to allow the cells to attach. Then, a fresh medium containing various concentrations of the candidate compounds was added to each well. The cells were then incubated for 96 h, thereafter MTT assays were performed, and cell viability was assessed at 570 nm by a microplate reader (ThermoFisher Scientific (Shanghai) Instrument Co., Ltd., Shanghai, China). The optical densities (OD) at 570 nm were measured, and the IC50 of the target compounds was calculated by using GraphPad Prism 5.0 software to perform nonlinear fitting with the cell survival rate under different concentrations of the compounds.

[2] = tested on: HCT116 (colon cancer cell line); assay: MTT antiproliferative assay, HCT116; assay type: cell-based, human; conditions: 96 h incubation
Experimental: as §1, §2

[3] = tested on: HL7702 (human liver normal cell line); assay: MTT cytotoxicity assay, HL7702; assay type: cell-based; conditions: L02, HL7702 normal liver cells, 96 h incubation
Experimental: as §1, §2

[4] = tested on: PC-3 (prostate cancer cell line); assay: MTT antiproliferative assay, PC3; assay type: cell-based, human; conditions: 96 h incubation
Experimental: as §1, §2

[5] = tested on: A549 (non-small cell lung cancer cell line); assay: MTT antiproliferative assay, A549; assay type: cell-based, human; conditions: 96 h incubation
Experimental: as §1, §2

COc1cc(CNC(=O)Nc2ccc(OC(F)(F)F)cc2)ccc1OCc1nccc(OCC(F)(F)F)c1C [8a, 1-(3-methoxy-4-((3-methyl-4-(2,2,2-trifluoroethoxy)pyridin-2-yl)methoxy)benzyl)-3-(4-(trifluoromethoxy)phenyl)urea]
IC50 ([1]; Homo sapiens, MCF7, 96 h): > 50 µM | IC50 ([2]; Homo sapiens, HCT-116, 96 h): 7.25 ± 0.87 µM | melting point: 158.8 to 159.3 °C | IC50 [3]: > 50 µM | IC50 ([4]; Homo sapiens, 96 h): > 50 µM | IC50 ([5]; Homo sapiens, A549, 96 h): 5.3 ± 1.45 µM

COc1cc(CNC(=O)Nc2ccc(F)c(Cl)c2)ccc1OCc1nccc(OCC(F)(F)F)c1C [8b, 1-(3-chloro-4-fluorophenyl)-3-(3-methoxy-4-((3-methyl-4-(2,2,2-trifluoroethoxy)pyridin-2-yl)methoxy)benzyl)urea]
IC50 ([1]; Homo sapiens, MCF7, 96 h): 11 ± 1.68 µM | IC50 ([2]; Homo sapiens, HCT-116, 96 h): 9.33 ± 1.38 µM | melting point: 167.8 to 169.1 °C | IC50 [3]: > 50 µM | IC50 ([4]; Homo sapiens, 96 h): 29.1 ± 5.81 µM | IC50 ([5]; Homo sapiens, A549, 96 h): 17.7 ± 5.65 µM

COc1cc(CNC(=O)Nc2ccc(C(F)(F)F)cc2)ccc1OCc1nccc(OCC(F)(F)F)c1C [8c, 1-(3-methoxy-4-((3-methyl-4-(2,2,2-trifluoroethoxy)pyridin-2-yl)methoxy)benzyl)-3-(4-(trifluoromethyl)phenyl)urea]
IC50 ([1]; Homo sapiens, MCF7, 96 h): > 50 µM | IC50 ([2]; Homo sapiens, HCT-116, 96 h): 11.4 ± 3.28 µM | melting point: 169.9 to 171 °C | IC50 [3]: > 50 µM | IC50 ([4]; Homo sapiens, 96 h): > 50 µM | IC50 [5]: 4.88 ± 1.94 µM | IC50 ([5]; Homo sapiens, A549, 96 h): < 5 µM

COc1cc(CNC(=O)Nc2cccc(C(F)(F)F)c2)ccc1OCc1nccc(OCC(F)(F)F)c1C [8d, 1-(3-methoxy-4-((3-methyl-4-(2,2,2-trifluoroethoxy)pyridin-2-yl)methoxy)benzyl)-3-(3-(trifluoromethyl)phenyl)urea]
IC50 ([1]; Homo sapiens, MCF7, 96 h): > 50 µM | IC50 ([2]; Homo sapiens, HCT-116, 96 h): 9.44 ± 1.22 µM | melting point: 153.2 to 154.2 °C | IC50 [3]: > 50 µM | IC50 ([4]; Homo sapiens, 96 h): > 50 µM | IC50 ([5]; Homo sapiens, A549, 96 h): 26.5 ± 5.66 µM

COc1ccc(NC(=O)NCc2ccc(OCc3nccc(OCC(F)(F)F)c3C)c(OC)c2)cc1 [8e, 1-(3-methoxy-4-((3-methyl-4-(2,2,2-trifluoroethoxy)pyridin-2-yl)methoxy)benzyl)-3-(4-methoxyphenyl)urea]
IC50 ([1]; Homo sapiens, MCF7, 96 h): > 50 µM | IC50 ([2]; Homo sapiens, HCT-116, 96 h): 28.8 ± 3.11 µM | melting point: 179.5 to 180.3 °C | IC50 [3]: > 50 µM | IC50 ([4]; Homo sapiens, 96 h): > 50 µM | IC50 ([5]; Homo sapiens, A549, 96 h): 29.8 ± 5.09 µM

COc1cc(CNC(=O)Nc2cccc([N+](=O)[O-])c2)ccc1OCc1nccc(OCC(F)(F)F)c1C [8f, 1-(3-methoxy-4-((3-methyl-4-(2,2,2-trifluoroethoxy)pyridin-2-yl)methoxy)benzyl)-3-(3-nitrophenyl)urea]
IC50 ([1]; Homo sapiens, MCF7, 96 h): 13.3 ± 2.27 µM | IC50 ([2]; Homo sapiens, HCT-116, 96 h): 13.3 ± 2.78 µM | melting point: 168.9 to 170.5 °C | IC50 [3]: > 50 µM | IC50 ([4]; Homo sapiens, 96 h): 15.9 ± 0.73 µM | IC50 ([5]; Homo sapiens, A549, 96 h): 12.4 ± 0.6 µM

COc1ccc(CNC(=O)NCc2ccc(OCc3nccc(OCC(F)(F)F)c3C)c(OC)c2)cc1 [8g, 1-(3-methoxy-4-((3-methyl-4-(2,2,2-trifluoroethoxy)pyridin-2-yl)methoxy)benzyl)-3-(4-methoxybenzyl)urea]
IC50 ([1]; Homo sapiens, MCF7, 96 h): > 50 µM | IC50 ([2]; Homo sapiens, HCT-116, 96 h): 7.84 ± 1.4 µM | melting point: 153 to 154.2 °C | IC50 [3]: > 50 µM | IC50 ([4]; Homo sapiens, 96 h): > 50 µM | IC50 ([5]; Homo sapiens, A549, 96 h): > 50 µM

CCOc1ccc(CNC(=O)NCc2ccc(OCc3nccc(OCC(F)(F)F)c3C)c(OC)c2)cc1 [8h, 1-(4-ethoxybenzyl)-3-(3-methoxy-4-((3-methyl-4-(2,2,2-trifluoroethoxy)pyridin-2-yl)methoxy)benzyl)urea]
IC50 ([1]; Homo sapiens, MCF7, 96 h): > 50 µM | IC50 ([2]; Homo sapiens, HCT-116, 96 h): 23.3 ± 3.12 µM | melting point: 148.9 to 149.9 °C | IC50 [3]: > 50 µM | IC50 ([4]; Homo sapiens, 96 h): > 50 µM | IC50 ([5]; Homo sapiens, A549, 96 h): 10.9 ± 2.02 µM

COc1cc(CNC(=O)NCc2ccc(N(C)C)cc2)ccc1OCc1nccc(OCC(F)(F)F)c1C [8i, 1-(4-(dimethylamino)benzyl)-3-(3-methoxy-4-((3-methyl-4-(2,2,2-trifluoroethoxy)pyridin-2-yl)methoxy)benzyl)urea]
IC50 ([1]; Homo sapiens, MCF7, 96 h): > 50 µM | IC50 ([2]; Homo sapiens, HCT-116, 96 h): 10.9 ± 2.85 µM | melting point: 159.4 to 161.4 °C | IC50 [3]: > 50 µM | IC50 ([4]; Homo sapiens, 96 h): > 50 µM | IC50 ([5]; Homo sapiens, A549, 96 h): 9.85 ± 4.4 µM

COc1cc(CN(C(=O)Nc2ccc(OC(F)(F)F)cc2)C2CCN(C)CC2)ccc1OCc1nccc(OCC(F)(F)F)c1C [9a, 1-(3-methoxy-4-((3-methyl-4-(2,2,2-trifluoroethoxy)pyridin-2-yl)methoxy)benzyl)-1-(1-methylpiperidin-4-yl)-3-(4-(trifluoromethoxy)phenyl)urea]
IC50 [1]: 2.59 ± 0.29 µM | IC50 ([1]; Homo sapiens, MCF7, 96 h): < 3 µM | IC50 ([2]; Homo sapiens, HCT-116, 96 h): 4.41 ± 0.14 µM | melting point: 127.3 to 129.4 °C | IC50 [3]: > 50 µM | IC50 [4]: 4.1 ± 0.19 µM | IC50 ([4]; Homo sapiens, 96 h): < 5 µM | IC50 ([5]; Homo sapiens, A549, 96 h): 17.5 ± 2.95 µM

COc1ccc(NC(=O)N(Cc2ccc(OCc3nccc(OCC(F)(F)F)c3C)c(OC)c2)C2CCN(C)CC2)cc1 [9c, 1-(3-methoxy-4-((3-methyl-4-(2,2,2-trifluoroethoxy)pyridin-2-yl)methoxy)benzyl)-3-(4-methoxyphenyl)-1-(1-methylpiperidin-4-yl)urea]
IC50 ([1]; Homo sapiens, MCF7, 96 h): 4.65 ± 0.73 µM | IC50 ([2]; Homo sapiens, HCT-116, 96 h): 12.9 ± 1.59 µM | melting point: 179.1 to 180.8 °C | IC50 [3]: > 50 µM | IC50 ([4]; Homo sapiens, 96 h): 12.3 ± 1.75 µM | IC50 ([5]; Homo sapiens, A549, 96 h): 15.8 ± 1.51 µM

COc1cc(CN(C(=O)Nc2cccc(C(F)(F)F)c2)C2CCN(C)CC2)ccc1OCc1nccc(OCC(F)(F)F)c1C [9d, 1-(3-methoxy-4-((3-methyl-4-(2,2,2-trifluoroethoxy)pyridin-2-yl)methoxy)benzyl)-1-(1-methylpiperidin-4-yl)-3-(3-(trifluoromethyl)phenyl)urea]
IC50 [1]: 2.63 ± 0.08 µM | IC50 ([1]; Homo sapiens, MCF7, 96 h): < 3 µM | IC50 [2]: 2.56 ± 0.26 µM | IC50 ([2]; Homo sapiens, HCT-116, 96 h): < 3 µM | melting point: 160.4 to 162.2 °C | IC50 [3]: > 50 µM | IC50 [4]: 3.62 ± 0.27 µM | IC50 ([4]; Homo sapiens, 96 h): < 5 µM | IC50 [5]: 3.17 ± 0.22 µM | IC50 ([5]; Homo sapiens, A549, 96 h): < 5 µM

COc1cc(CN(C(=O)Nc2ccc(F)c(Cl)c2)C2CCN(C)CC2)ccc1OCc1nccc(OCC(F)(F)F)c1C [9e, 3-(3-chloro-4-fluorophenyl)-1-(3-methoxy-4-((3-methyl-4-(2,2,2-trifluoroethoxy)pyridin-2-yl)methoxy)benzyl)-1-(1-methylpiperidin-4-yl)urea]
IC50 [1]: 2.56 ± 0.16 µM | IC50 ([1]; Homo sapiens, MCF7, 96 h): < 3 µM | IC50 ([2]; Homo sapiens, HCT-116, 96 h): 5.82 ± 0.21 µM | melting point: 176.2 to 177.7 °C | IC50 [3]: > 50 µM | IC50 [4]: 4.53 ± 0.33 µM | IC50 ([4]; Homo sapiens, 96 h): < 5 µM | IC50 ([5]; Homo sapiens, A549, 96 h): 5.48 ± 4.36 µM

COc1cc(CN(C(=O)Nc2cccc([N+](=O)[O-])c2)C2CCN(C)CC2)ccc1OCc1nccc(OCC(F)(F)F)c1C [9f, 1-(3-methoxy-4-((3-methyl-4-(2,2,2-trifluoroethoxy)pyridin-2-yl)methoxy)benzyl)-1-(1-methylpiperidin-4-yl)-3-(3-nitrophenyl)urea]
IC50 ([1]; Homo sapiens, MCF7, 96 h): 3.18 ± 0.3 µM | IC50 ([2]; Homo sapiens, HCT-116, 96 h): 5.18 ± 0.33 µM | melting point: 157.5 to 159.1 °C | IC50 [3]: > 50 µM | IC50 ([4]; Homo sapiens, 96 h): 7.39 ± 0.63 µM | IC50 ([5]; Homo sapiens, A549, 96 h): 6.09 ± 0.29 µM

CCOc1ccc(CNC(=O)N(Cc2ccc(OCc3nccc(OCC(F)(F)F)c3C)c(OC)c2)C2CCN(C)CC2)cc1 [9g, 3-(4-ethoxybenzyl)-1-(3-methoxy-4-((3-methyl-4-(2,2,2-trifluoroethoxy)pyridin-2-yl)methoxy)benzyl)-1-(1-methylpiperidin-4-yl)urea]
IC50 ([1]; Homo sapiens, MCF7, 96 h): 4.23 ± 0.47 µM | IC50 [2]: 2.93 ± 0.26 µM | IC50 ([2]; Homo sapiens, HCT-116, 96 h): < 3 µM | melting point: 119 to 121.2 °C | IC50 [3]: > 50 µM | IC50 ([4]; Homo sapiens, 96 h): 6.25 ± 0.43 µM | IC50 ([5]; Homo sapiens, A549, 96 h): 6.04 ± 0.41 µM

CNC(=O)c1cc(Oc2ccc(NC(=O)Nc3ccc(Cl)c(C(F)(F)F)c3)cc2)ccn1 [sorafenib, reference compound]
IC50 ([1]; Homo sapiens, MCF7, 96 h): 3.54 ± 0.19 µM | IC50 ([2]; Homo sapiens, HCT-116, 96 h): 3.88 ± 0.36 µM | IC50 [3]: > 50 µM | IC50 ([4]; Homo sapiens, 96 h): 5.26 ± 0.46 µM | IC50 ([5]; Homo sapiens, A549, 96 h): 6.16 ± 0.46 µM

— article PMC8226862, “Design, Synthesis and Anticancer Activity of a New Series of N-aryl-N′-[4-(pyridin-2-ylmethoxy)benzyl]urea Derivatives” (Molecules, 2021)
